Data published in patent EP4745135A1 (Gluetacs Therapeutics (Shanghai) Co., Ltd., priority 2023, dated 2025).

Legend:
[1] = biological target: T1, CK1α (Homo sapiens, UniProt P48729+Q96SW2); experiment: Western blot, degradation of substrate protein in hPBMCs; format: cell-based
T1 construct: effects of the compounds of the present disclosure on the expression of target proteins in cells; endogenous in cells; host or cells: human PBMCs (Milecell Biotechnologies)

[2] = biological target: T2, IKZF1 (Homo sapiens, UniProt Q13422+Q96SW2); experiment: as above; format: cell-based
T2 construct: effects of the compounds of the present disclosure on the expression of target proteins in cells; endogenous in cells; host or cells: human PBMCs (Milecell Biotechnologies)
T2 sequence (Q13422 whole entry): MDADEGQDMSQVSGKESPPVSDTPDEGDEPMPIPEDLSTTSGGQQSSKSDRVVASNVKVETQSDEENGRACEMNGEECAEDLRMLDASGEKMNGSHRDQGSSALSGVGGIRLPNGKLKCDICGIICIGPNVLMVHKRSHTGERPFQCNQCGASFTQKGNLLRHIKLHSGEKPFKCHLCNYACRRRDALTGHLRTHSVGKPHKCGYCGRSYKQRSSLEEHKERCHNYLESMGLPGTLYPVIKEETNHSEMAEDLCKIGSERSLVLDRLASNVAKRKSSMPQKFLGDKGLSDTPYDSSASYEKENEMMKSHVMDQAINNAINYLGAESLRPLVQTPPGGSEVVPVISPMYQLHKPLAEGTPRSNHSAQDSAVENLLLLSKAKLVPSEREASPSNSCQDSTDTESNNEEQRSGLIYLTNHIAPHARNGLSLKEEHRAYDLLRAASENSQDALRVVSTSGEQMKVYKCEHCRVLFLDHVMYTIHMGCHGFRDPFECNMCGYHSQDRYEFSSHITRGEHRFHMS
T2 sequence (Q96SW2 whole entry): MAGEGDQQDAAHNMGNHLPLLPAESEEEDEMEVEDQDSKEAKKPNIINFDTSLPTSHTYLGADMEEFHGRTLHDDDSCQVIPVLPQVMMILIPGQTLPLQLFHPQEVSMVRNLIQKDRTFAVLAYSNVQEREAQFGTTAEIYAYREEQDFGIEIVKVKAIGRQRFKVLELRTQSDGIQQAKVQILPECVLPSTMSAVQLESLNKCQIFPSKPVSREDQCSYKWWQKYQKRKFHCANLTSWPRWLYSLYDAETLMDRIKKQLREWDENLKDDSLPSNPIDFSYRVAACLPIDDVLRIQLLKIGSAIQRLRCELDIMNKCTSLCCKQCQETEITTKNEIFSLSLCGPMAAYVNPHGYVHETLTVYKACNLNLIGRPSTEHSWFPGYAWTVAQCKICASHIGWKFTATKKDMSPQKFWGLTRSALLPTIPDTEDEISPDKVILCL
T2 sequence (Q16531 whole entry partner): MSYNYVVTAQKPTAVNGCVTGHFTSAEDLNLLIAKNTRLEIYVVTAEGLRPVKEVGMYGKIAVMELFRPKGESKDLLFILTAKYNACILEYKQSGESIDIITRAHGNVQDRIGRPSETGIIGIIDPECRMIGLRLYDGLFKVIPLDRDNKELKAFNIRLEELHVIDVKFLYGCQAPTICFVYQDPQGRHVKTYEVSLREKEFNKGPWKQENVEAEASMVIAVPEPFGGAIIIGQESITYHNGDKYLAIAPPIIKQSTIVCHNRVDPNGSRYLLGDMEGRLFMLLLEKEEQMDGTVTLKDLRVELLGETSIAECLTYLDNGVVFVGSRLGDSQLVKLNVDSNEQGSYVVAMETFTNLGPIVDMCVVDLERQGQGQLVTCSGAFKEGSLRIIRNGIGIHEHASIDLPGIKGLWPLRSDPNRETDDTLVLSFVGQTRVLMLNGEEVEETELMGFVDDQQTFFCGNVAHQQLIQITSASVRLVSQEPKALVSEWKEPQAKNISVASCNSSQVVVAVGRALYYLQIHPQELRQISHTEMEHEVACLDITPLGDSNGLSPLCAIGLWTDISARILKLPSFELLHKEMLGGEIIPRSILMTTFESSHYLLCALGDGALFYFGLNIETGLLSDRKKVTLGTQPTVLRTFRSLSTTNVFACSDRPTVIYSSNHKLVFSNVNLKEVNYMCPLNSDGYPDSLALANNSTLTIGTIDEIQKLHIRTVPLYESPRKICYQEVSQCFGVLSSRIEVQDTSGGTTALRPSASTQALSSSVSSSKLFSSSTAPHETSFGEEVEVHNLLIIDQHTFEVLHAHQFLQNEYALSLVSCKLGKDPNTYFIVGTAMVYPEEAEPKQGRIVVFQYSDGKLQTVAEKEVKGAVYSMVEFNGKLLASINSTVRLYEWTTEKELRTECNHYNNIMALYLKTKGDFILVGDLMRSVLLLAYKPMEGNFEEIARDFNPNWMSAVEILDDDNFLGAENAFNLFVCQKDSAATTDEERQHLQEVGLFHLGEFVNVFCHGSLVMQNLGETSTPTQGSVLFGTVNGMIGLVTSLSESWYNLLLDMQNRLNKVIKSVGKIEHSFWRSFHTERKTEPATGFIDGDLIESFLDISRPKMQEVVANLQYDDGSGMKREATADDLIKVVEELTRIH

[3] = biological target: T3, IKZF2 (Homo sapiens, UniProt Q96SW2+Q9UKS7); experiment: as above; format: cell-based
T3 construct: effects of the compounds of the present disclosure on the expression of target proteins in cells; endogenous in cells; host or cells: human PBMCs (Milecell Biotechnologies)
T3 sequence (Q9UKS7 whole entry): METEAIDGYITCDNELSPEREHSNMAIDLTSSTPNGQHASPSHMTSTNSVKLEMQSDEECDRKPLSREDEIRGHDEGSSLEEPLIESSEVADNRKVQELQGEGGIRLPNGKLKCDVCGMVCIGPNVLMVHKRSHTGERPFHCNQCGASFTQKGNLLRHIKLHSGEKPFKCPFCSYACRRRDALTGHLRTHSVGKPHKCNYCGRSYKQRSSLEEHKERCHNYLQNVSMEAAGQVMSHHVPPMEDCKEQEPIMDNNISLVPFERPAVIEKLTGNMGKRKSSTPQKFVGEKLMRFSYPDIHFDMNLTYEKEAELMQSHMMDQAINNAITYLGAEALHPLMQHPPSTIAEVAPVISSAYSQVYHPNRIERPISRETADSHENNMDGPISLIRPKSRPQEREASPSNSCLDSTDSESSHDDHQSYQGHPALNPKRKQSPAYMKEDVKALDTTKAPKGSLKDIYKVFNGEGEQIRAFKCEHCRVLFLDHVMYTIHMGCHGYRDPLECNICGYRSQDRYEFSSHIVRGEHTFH
T3 sequence (Q96SW2 whole entry): as the sequence (Q96SW2 whole entry) above
T3 sequence (Q16531 whole entry partner): as the sequence (Q16531 whole entry partner) above

[4] = biological target: T4, IKZF3 (Homo sapiens, UniProt Q96SW2+Q9UKT9); experiment: as above; format: cell-based
T4 construct: effects of the compounds of the present disclosure on the expression of target proteins in cells; endogenous in cells; host or cells: human PBMCs (Milecell Biotechnologies)
T4 sequence (Q9UKT9 whole entry): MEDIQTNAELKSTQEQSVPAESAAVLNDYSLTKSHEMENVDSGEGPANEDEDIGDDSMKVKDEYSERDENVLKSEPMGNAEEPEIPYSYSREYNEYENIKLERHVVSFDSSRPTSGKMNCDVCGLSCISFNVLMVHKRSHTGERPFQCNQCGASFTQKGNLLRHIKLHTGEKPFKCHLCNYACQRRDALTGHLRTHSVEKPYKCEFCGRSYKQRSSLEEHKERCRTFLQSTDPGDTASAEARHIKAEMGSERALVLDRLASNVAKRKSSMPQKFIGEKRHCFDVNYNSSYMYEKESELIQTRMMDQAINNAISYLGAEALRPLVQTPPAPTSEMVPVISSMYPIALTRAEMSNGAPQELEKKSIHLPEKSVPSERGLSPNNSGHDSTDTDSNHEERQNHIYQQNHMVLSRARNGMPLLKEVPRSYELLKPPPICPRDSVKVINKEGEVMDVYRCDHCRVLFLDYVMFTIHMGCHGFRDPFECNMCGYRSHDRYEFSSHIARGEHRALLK
T4 sequence (Q96SW2 whole entry): as the sequence (Q96SW2 whole entry) above
T4 sequence (Q16531 whole entry partner): as the sequence (Q16531 whole entry partner) above

[5] = biological target: T5, WEE1 (Homo sapiens, UniProt P30291+Q96SW2); experiment: as above; format: cell-based
T5 construct: effects of the compounds of the present disclosure on the expression of target proteins in cells; endogenous in cells; host or cells: human PBMCs (Milecell Biotechnologies)
T5 sequence (P30291 whole entry): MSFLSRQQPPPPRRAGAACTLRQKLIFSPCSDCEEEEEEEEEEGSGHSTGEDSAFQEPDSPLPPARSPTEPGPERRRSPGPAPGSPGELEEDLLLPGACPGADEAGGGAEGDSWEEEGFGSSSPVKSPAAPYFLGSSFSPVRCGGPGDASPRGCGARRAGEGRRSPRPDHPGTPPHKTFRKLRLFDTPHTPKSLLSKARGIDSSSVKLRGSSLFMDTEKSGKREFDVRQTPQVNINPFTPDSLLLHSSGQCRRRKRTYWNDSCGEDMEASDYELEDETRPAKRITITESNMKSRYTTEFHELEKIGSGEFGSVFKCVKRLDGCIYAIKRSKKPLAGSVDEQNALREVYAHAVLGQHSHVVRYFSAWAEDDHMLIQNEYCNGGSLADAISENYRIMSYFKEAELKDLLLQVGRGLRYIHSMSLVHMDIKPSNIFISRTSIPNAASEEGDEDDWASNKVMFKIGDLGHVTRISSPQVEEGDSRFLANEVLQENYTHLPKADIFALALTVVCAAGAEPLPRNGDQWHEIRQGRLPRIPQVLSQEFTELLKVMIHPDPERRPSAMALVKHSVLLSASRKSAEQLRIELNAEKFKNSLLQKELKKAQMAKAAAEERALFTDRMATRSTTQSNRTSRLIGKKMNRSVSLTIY
T5 sequence (Q96SW2 whole entry): as the sequence (Q96SW2 whole entry) above
T5 sequence (Q16531 whole entry partner): as the sequence (Q16531 whole entry partner) above

[6] = tested on: GSPT1; experiment: as above; format: cell-based, Human
[7] = biological target: T6, human Cereblon WT GST-tagged protein (Homo sapiens, UniProt Q96SW2); experiment: CRBN-binding affinity, HTRF (CEREBLON BINDING kit); details: for inhibition at 0.5 µM: read-out: Inhibition Rate at 0.5 µM (%); for inhibition at 2 µM: read-out: Inhibition Rate at 2 µM (%)
T6 construct: purchased CISBIO 64BDCRBNPEH
T6 sequence (Q96SW2 whole entry): as the sequence (Q96SW2 whole entry) above

[8] = Western blot, 24 hours of compound treatment, compounds tested at 50 nM and 500 nM (concentration for the table not stated)
[9] = 24 hours treatment, compounds at 50 nM and 500 nM (concentration behind the class not stated)

T1 sequence (P48729 whole entry): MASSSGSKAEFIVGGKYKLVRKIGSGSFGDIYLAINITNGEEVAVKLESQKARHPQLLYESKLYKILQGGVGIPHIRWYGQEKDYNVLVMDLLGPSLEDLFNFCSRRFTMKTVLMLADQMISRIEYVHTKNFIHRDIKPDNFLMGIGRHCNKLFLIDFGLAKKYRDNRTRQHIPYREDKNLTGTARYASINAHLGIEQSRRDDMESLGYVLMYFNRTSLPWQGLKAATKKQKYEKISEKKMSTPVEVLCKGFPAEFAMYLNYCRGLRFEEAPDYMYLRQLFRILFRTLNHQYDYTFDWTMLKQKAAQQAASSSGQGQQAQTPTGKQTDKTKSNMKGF
T1 sequence (Q96SW2 whole entry): as the sequence (Q96SW2 whole entry) above
T1 sequence (Q16531 whole entry partner): as the sequence (Q16531 whole entry partner) above

SMILES	CK1α substrate protein remaining % [1, 8]	IKZF 1 substrate protein remaining % [2, 8]	IKZF2 substrate protein remaining % [3, 8]	IKZF3 substrate protein remaining % [4, 8]	Wee1 substrate protein remaining % [5, 8]	GSPT1 substrate protein remaining % [6, 8]	inhibition at 0.5 µM [7]	inhibition at 2 µM [7]	CK1α substrate protein remaining % [1, 9]	IKZF 1 substrate protein remaining % [2, 9]	IKZF2 substrate protein remaining % [3, 9]	IKZF3 substrate protein remaining % [4, 9]	Wee1 substrate protein remaining % [5, 9]	GSPT1 substrate protein remaining % [6, 9]
O=C1CCC(N2Cc3c(CN4CCN(c5ccccn5)CC4)cccc3C2=S)C(=O)N1 (stereo not drawn) [GT-08691, 3-(4-((4-(pyridin-2-yl)piperazin-1-yl)methyl)-1-thioxoisoindolin-2-yl)piperidine-2,6-dione]	B (80%< substrate protein remaining %≤ 100%)	B (80%< substrate protein remaining %≤ 100%)	B (80%< substrate protein remaining %≤ 100%)	B (80%< substrate protein remaining %≤ 100%)	A (0% ≤ substrate protein remaining % ≤ 80%)	B (80%< substrate protein remaining %≤ 100%)	60 to 80%	80 to 100%	–	–	–	–	–	–
O=C1CCC(N2Cc3c(CN4CCN(c5cccnn5)CC4)cccc3C2=S)C(=O)N1 (stereo not drawn) [GT-08810, 3-(4-((4-(pyridazin-3-yl)piperazin-1-yl)methyl)-1-thioxoisoindolin-2-yl)piperidine-2,6-dione]	B (80%< substrate protein remaining %≤ 100%)	B (80%< substrate protein remaining %≤ 100%)	B (80%< substrate protein remaining %≤ 100%)	B (80%< substrate protein remaining %≤ 100%)	A (0% ≤ substrate protein remaining % ≤ 80%)	B (80%< substrate protein remaining %≤ 100%)	60 to 80%	80 to 100%	–	–	–	–	–	–
O=C1CCC(N2Cc3c(CN4CCN(c5ncnc6sccc56)CC4)cccc3C2=S)C(=O)N1 (stereo not drawn) [GT-08912, 3-(4-((4-(thieno[2,3-d]pyrimidin-4-yl)piperazin-1-yl)methyl)-1-thioxoisoindolin-2-yl)piperidine-2,6-dione]	–	–	–	–	–	–	60 to 80%	80 to 100%	B (80%< substrate protein remaining %≤ 100%)	B (80%< substrate protein remaining %≤ 100%)	B (80%< substrate protein remaining %≤ 100%)	B (80%< substrate protein remaining %≤ 100%)	A (0% ≤ substrate protein remaining % ≤ 80%)	B (80%< substrate protein remaining %≤ 100%)
O=C1CCC(N2Cc3c(CN4CCN(c5nccc(F)c5F)CC4)cccc3C2=S)C(=O)N1 (stereo not drawn) [GT-08728, 3-(4-((4-(3,4-difluoropyridin-2-yl)piperazin-1-yl)methyl)-1-thioxoisoindolin-2-yl)piperidine-2,6-dione]	B (80%< substrate protein remaining %≤ 100%)	B (80%< substrate protein remaining %≤ 100%)	B (80%< substrate protein remaining %≤ 100%)	B (80%< substrate protein remaining %≤ 100%)	A (0% ≤ substrate protein remaining % ≤ 80%)	B (80%< substrate protein remaining %≤ 100%)	53 to 60%	80 to 100%	–	–	–	–	–	–
COc1cccc(N2CCN(Cc3cccc4c3CN(C3CCC(=O)NC3=O)C4=S)CC2)c1 (stereo not drawn) [GT-08304, 3-(4-((4-(3-methoxyphenyl)piperazin-1-yl)methyl)-1-thioxoisoindolin-2-yl)piperidine-2,6-dione]	B (80%< substrate protein remaining %≤ 100%)	A (0% ≤ substrate protein remaining % ≤ 80%)	B (80%< substrate protein remaining %≤ 100%)	B (80%< substrate protein remaining %≤ 100%)	A (0% ≤ substrate protein remaining % ≤ 80%)	B (80%< substrate protein remaining %≤ 100%)	60 to 80%	60 to 80%	–	–	–	–	–	–
O=C1CCC(N2Cc3cc(CN4CCN(c5ccncc5Cl)CC4)ccc3C2=S)C(=O)N1 (stereo not drawn) [GT-09238, 3-(5-((4-(3-chloropyridin-4-yl)piperazin-1-yl)methyl)-1-thioxoisoindolin-2-yl)piperidine-2,6-dione]	A (0% ≤ substrate protein remaining % ≤ 80%)	B (80%< substrate protein remaining %≤ 100%)	A (0% ≤ substrate protein remaining % ≤ 80%)	A (0% ≤ substrate protein remaining % ≤ 80%)	B (80%< substrate protein remaining %≤ 100%)	A (0% ≤ substrate protein remaining % ≤ 80%)	60 to 80%	80 to 100%	–	–	–	–	–	–
O=C1CCC(N2Cc3c(CN4CCN(c5ncc(Cl)cc5Cl)CC4)cccc3C2=S)C(=O)N1 (stereo not drawn) [GT-08703, 3-(4-((4-(3,5-dichloropyridin-2-yl)piperazin-1-yl)methyl)-1-thioxoisoindolin-2-yl)piperidine-2,6-dione]	B (80%< substrate protein remaining %≤ 100%)	B (80%< substrate protein remaining %≤ 100%)	B (80%< substrate protein remaining %≤ 100%)	B (80%< substrate protein remaining %≤ 100%)	A (0% ≤ substrate protein remaining % ≤ 80%)	B (80%< substrate protein remaining %≤ 100%)	53 to 60%	60 to 80%	–	–	–	–	–	–
Cc1ccc(N2CCN(Cc3cccc4c3CN(C3CCC(=O)NC3=O)C4=S)CC2)s1 (stereo not drawn) [GT-08305, 3-(4-((4-(5-methylthiophen-2-yl)piperazin-1-yl)methyl)-1-thioxoisoindolin-2-yl)piperidine-2,6-dione]	–	–	–	–	–	–	60 to 80%	80 to 100%	B (80%< substrate protein remaining %≤ 100%)	B (80%< substrate protein remaining %≤ 100%)	A (0% ≤ substrate protein remaining % ≤ 80%)	B (80%< substrate protein remaining %≤ 100%)	B (80%< substrate protein remaining %≤ 100%)	B (80%< substrate protein remaining %≤ 100%)
O=C1CCC(N2Cc3c(CN4CCN(c5cc(Cl)cc(Cl)c5)CC4)cccc3C2=S)C(=O)N1 (stereo not drawn) [GT-08629, 3-(4-((4-(3,5-dichlorophenyl)piperazin-1-yl)methyl)-1-thioxoisoindolin-2-yl)piperidine-2,6-dione]	A (0% ≤ substrate protein remaining % ≤ 80%)	B (80%< substrate protein remaining %≤ 100%)	B (80%< substrate protein remaining %≤ 100%)	B (80%< substrate protein remaining %≤ 100%)	A (0% ≤ substrate protein remaining % ≤ 80%)	B (80%< substrate protein remaining %≤ 100%)	40 to 53%	60 to 80%	–	–	–	–	–	–
O=C1CCC(N2Cc3c(CN4CCC(c5ccc(Br)cc5)CC4)cccc3C2=S)C(=O)N1 (stereo not drawn) [GT-08592, 3-(4-((4-(4-bromophenyl)piperidin-1-yl)methyl)-1-thioxoisoindolin-2-yl)piperidine-2,6-dione]	B (80%< substrate protein remaining %≤ 100%)	B (80%< substrate protein remaining %≤ 100%)	B (80%< substrate protein remaining %≤ 100%)	B (80%< substrate protein remaining %≤ 100%)	A (0% ≤ substrate protein remaining % ≤ 80%)	B (80%< substrate protein remaining %≤ 100%)	40 to 53%	60 to 80%	–	–	–	–	–	–
O=C1CCC(N2Cc3c(CN4CCC(c5ccnc6cc(F)ccc56)CC4)cccc3C2=S)C(=O)N1 (stereo not drawn) [GT-08858, 3-(4-((4-(7-fluoroquinolin-4-yl)piperidin-1-yl)methyl)-1-thioxoisoindolin-2-yl)piperidine-2,6-dione]	–	–	–	–	–	–	60 to 80%	80 to 100%	B (80%< substrate protein remaining %≤ 100%)	B (80%< substrate protein remaining %≤ 100%)	B (80%< substrate protein remaining %≤ 100%)	B (80%< substrate protein remaining %≤ 100%)	A (0% ≤ substrate protein remaining % ≤ 80%)	B (80%< substrate protein remaining %≤ 100%)
O=C1CCC(N2Cc3cc(CN4CCN(c5ncccn5)CC4)ccc3C2=S)C(=O)N1 (stereo not drawn) [GT-09252, 3-(5-((4-(pyrimidin-2-yl)piperazin-1-yl)methyl)-1-thioxoisoindolin-2-yl)piperidine-2,6-dione]	–	–	–	–	–	–	60 to 80%	80 to 100%	B (80%< substrate protein remaining %≤ 100%)	B (80%< substrate protein remaining %≤ 100%)	A (0% ≤ substrate protein remaining % ≤ 80%)	B (80%< substrate protein remaining %≤ 100%)	B (80%< substrate protein remaining %≤ 100%)	B (80%< substrate protein remaining %≤ 100%)
